PMC314469, “Protein Interaction Networks by Proteome Peptide Scanning” (PLoS Biology, 2004)

Test system: Myo5 SH3 domain
Assay: SPOT analysis of cellulose-bound peptides (WISE), Myo5 SH3 domain (Dataset S4)
Format: binding, Saccharomyces cerevisiae
Conditions: for The normalized value in BLU units: Myo5 SH3 domain
[1] = SPOT analysis of cellulose-bound 14-mer yeast proteome peptides, normalized value, mean where the peptide was synthesized more than once
[2] = SPOT analysis of membrane-bound peptides, normalized value (see methods)
[3] = SPOT analysis of cellulose-bound peptides probed with Myo5 SH3 domain, normalized value
[4] = SPOT analysis of membrane-synthesized peptides probed with Myo5 SH3 domain, normalized value

SAENLIQPTAPIRD
The normalized value in BLU units [1]: 56.4 BLU

SAFPYVFPLPPWIP
The normalized value in BLU units [1]: 12966.5 BLU

SANGKFIPSRPAPK
The normalized value in BLU units [2]: 6758.2 BLU

SANNYPFPQQPNGM
The normalized value in BLU units [1]: 79.6 BLU

SASTMAAPVHPQQQ
The normalized value in BLU units [1]: 164.3 BLU

SATGWLKPAVPIQW
The normalized value in BLU units (SPOT analysis, Myo5 SH3) [3]: 94.6 BLU

SAYYLGLPVTPEDM
The normalized value in BLU units (SPOT analysis, Myo5 SH3) [3]: 215.1 BLU

SDNSKSEPLPPVIT
The normalized value in BLU units (SPOT analysis, Myo5 SH3) [4]: 130.5 BLU

SEAKRKFPEAPEVP
The normalized value in BLU units [1]: 392.6 BLU

SELTFIAPTQPVST
The normalized value in BLU units (SPOT analysis, Myo5 SH3) [3]: 110.5 BLU

SELYYEGPETPTPS
The normalized value in BLU units [1]: 50.5 BLU

SEMHRAAPETPRSI
The normalized value in BLU units (SPOT analysis, Myo5 SH3) [4]: 322.4 BLU

SENGRLTPGLPRSY
The normalized value in BLU units [1]: 169.8 BLU

SENRLRTPLKPLVN
The normalized value in BLU units (SPOT analysis, Myo5 SH3) [3]: 272.3 BLU

SENYLVKPTIPGTT
The normalized value in BLU units (SPOT analysis, Myo5 SH3) [3]: 61.5 BLU

SERRKALPKEPKKL
The normalized value in BLU units (SPOT analysis, Myo5 SH3) [4]: 200.0 BLU

SETARKVPPIPTQI
The normalized value in BLU units [2]: 420.1 BLU

SETSHHSPSAPFQR
The normalized value in BLU units (SPOT analysis, Myo5 SH3) [3]: 257.2 BLU

SFDYLFHPFVPCTI
The normalized value in BLU units (SPOT analysis, Myo5 SH3) [3]: 23.1 BLU

SFIRKRAPTPPAPS
The normalized value in BLU units (SPOT analysis, Myo5 SH3) [4]: 878.2 BLU

SFRELWQPVDPSRE
The normalized value in BLU units [1]: 97.3 BLU

SFRKLASPSNPNFF
The normalized value in BLU units (SPOT analysis, Myo5 SH3) [3]: 208.8 BLU

SFTPFNRPSDPSNG
The normalized value in BLU units (SPOT analysis, Myo5 SH3) [3]: 208.5 BLU

SFTRMPLPTPPIEG
The normalized value in BLU units (SPOT analysis, Myo5 SH3) [3]: 287.1 BLU

SFVGFPKPLLPRNH
The normalized value in BLU units (SPOT analysis, Myo5 SH3) [3]: 205.1 BLU

SFVHLTEPSQPLSD
The normalized value in BLU units (SPOT analysis, Myo5 SH3) [3]: 99.7 BLU

SFVTKYLPAAPVGS
The normalized value in BLU units (SPOT analysis, Myo5 SH3) [4]: 214.9 BLU

SGSGRRYPQTPSYY
The normalized value in BLU units [2]: 435.6 BLU

SIIPRIFPSTPGTI
The normalized value in BLU units (SPOT analysis, Myo5 SH3) [4]: 368.8 BLU

SILNRCVPKRPTID
The normalized value in BLU units (SPOT analysis, Myo5 SH3) [4]: 132.7 BLU

SILRKSSPEEPFMS
The normalized value in BLU units (SPOT analysis, Myo5 SH3) [4]: 144.2 BLU

SKDKKTKPTPPPKP
The normalized value in BLU units [2]: 179.5 BLU

SKIKRSRPPPPPMD
The normalized value in BLU units [2]: 5408.9 BLU

SKIPKSIPIIPYVL
The normalized value in BLU units (SPOT analysis, Myo5 SH3) [4]: 243.1 BLU

SKNWKLPPRLPHRA
The normalized value in BLU units [2]: 5572.0 BLU

SKRMKALPKGPAAL
The normalized value in BLU units [1]: 821.6 BLU

SKVNKVAPDHPFIQ
The normalized value in BLU units [1]: 72.1 BLU

SKYAKLDPSTPVSL
The normalized value in BLU units [1]: 457.3 BLU

SLAVYNIPLFPDDP
The normalized value in BLU units (SPOT analysis, Myo5 SH3) [3]: 91.7 BLU

SLCALVGPVIPHTI
The normalized value in BLU units [1]: 28.4 BLU

SLDNFYNPLGPEDR
The normalized value in BLU units (SPOT analysis, Myo5 SH3) [3]: 142.7 BLU

SLFPLKTPISPGTS
The normalized value in BLU units (SPOT analysis, Myo5 SH3) [3]: 239.2 BLU

SLGERFMPMAPEVY
The normalized value in BLU units (SPOT analysis, Myo5 SH3) [4]: 139.8 BLU

SLIPKIEPAEPTYS
The normalized value in BLU units [2]: 85.4 BLU

SLISKRNPCYPYGI
The normalized value in BLU units [1]: 483.2 BLU

SLISMETPEQPHQQ
The normalized value in BLU units (SPOT analysis, Myo5 SH3) [3]: 146.8 BLU

SLKNRDGPITPSTI
The normalized value in BLU units [1]: 215.1 BLU

SLLAKYQPSLPLVE
The normalized value in BLU units [2]: 162.4 BLU

SLLIHSLPRKPLLM
The normalized value in BLU units (SPOT analysis, Myo5 SH3) [3]: 314.4 BLU

SLQQFYNPESPIQP
The normalized value in BLU units [1]: 131.1 BLU

SLTLKTLPRVPTDS
The normalized value in BLU units (SPOT analysis, Myo5 SH3) [4]: 211.7 BLU

SLVKFSCPMTPLLE
The normalized value in BLU units [1]: 248.6 BLU

SMAMRPIPPLPTES
The normalized value in BLU units [2]: 1326.7 BLU

SMDSKRKPSPPSQR
The normalized value in BLU units (SPOT analysis, Myo5 SH3) [4]: 509.7 BLU

SNFKKRDPGLPDFQ
The normalized value in BLU units (SPOT analysis, Myo5 SH3) [4]: 160.6 BLU

SPFSLFIPTIPATT
The normalized value in BLU units (SPOT analysis, Myo5 SH3) [3]: 151.7 BLU

SPFTFLFPFLPTII
The normalized value in BLU units (SPOT analysis, Myo5 SH3) [3]: 366.0 BLU

SPKFLNSPDLPERT
The normalized value in BLU units [1]: 182.8 BLU

SPKKHVSPSRPPSV
The normalized value in BLU units (SPOT analysis, Myo5 SH3) [3]: 1427.8 BLU

SPKKLASPRTPNAN
The normalized value in BLU units (SPOT analysis, Myo5 SH3) [3]: 276.2 BLU

SPKPFSKPQEPVKA
The normalized value in BLU units (SPOT analysis, Myo5 SH3) [3]: 359.1 BLU

SPLSWSGPLTPPTF
The normalized value in BLU units [1]: 168.0 BLU

SPNDHSDPSCPCNR
The normalized value in BLU units [1]: 76.1 BLU

SPRCLPTPILPSMS
The normalized value in BLU units (SPOT analysis, Myo5 SH3) [3]: 192.8 BLU

SPRHYNVPSSPIAP
The normalized value in BLU units (SPOT analysis, Myo5 SH3) [3]: 232.7 BLU

SPSDFNKPDLPELI
The normalized value in BLU units (SPOT analysis, Myo5 SH3) [3]: 316.9 BLU

SPSQYQYPSQPALS
The normalized value in BLU units [1]: 65.2 BLU

SPSTHAAPVTPIIS
The normalized value in BLU units (SPOT analysis, Myo5 SH3) [3]: 53.3 BLU

SPSTMDFPKLPSFQ
The normalized value in BLU units (SPOT analysis, Myo5 SH3) [3]: 466.9 BLU

SPVNLLKPFNPTLP
The normalized value in BLU units (SPOT analysis, Myo5 SH3) [3]: 122.9 BLU

SPVPLGSPRGPLPV
The normalized value in BLU units [1]: 135.1 BLU
